Where two headings read alike, the source gives them in different places.
Columns and labels:
mouse RORγt = target: T1, mouse RORγt (Mus musculus, UniProt P51450); assay: Drosophila S2 cell RORγt luciferase reporter; format: cell-based
T1 construct: mouse RORγt (amino acids 79 to the carboxyl terminal end); expressed in transfected cells
T1 sequence (P51450 79-495 isoform P51450-2): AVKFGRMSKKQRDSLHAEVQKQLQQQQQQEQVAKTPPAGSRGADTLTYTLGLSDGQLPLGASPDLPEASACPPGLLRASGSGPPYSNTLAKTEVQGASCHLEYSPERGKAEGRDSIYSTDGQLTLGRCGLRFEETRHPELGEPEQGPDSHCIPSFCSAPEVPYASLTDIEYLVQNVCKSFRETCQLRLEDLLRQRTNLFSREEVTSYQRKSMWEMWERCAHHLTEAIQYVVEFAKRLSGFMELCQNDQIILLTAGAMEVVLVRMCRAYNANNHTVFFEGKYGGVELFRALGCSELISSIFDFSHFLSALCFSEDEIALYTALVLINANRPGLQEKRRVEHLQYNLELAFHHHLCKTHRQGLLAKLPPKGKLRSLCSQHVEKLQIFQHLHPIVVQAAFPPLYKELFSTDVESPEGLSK
Text: The Drosophila S2 cell line was originally purchased from Invitrogen and was maintained in Schneider's medium supplemented with 10% heat-inactivated bovine fetal calf serum and antibiotics (Invitrogen). […] The resulting chimeric gene was subcloned into the copper inducible pMT/V5-His A vector (Invitrogen). […] Coding sequences for firefly luciferase (Promega) were PCR amplified and subcloned into pUAST vector containing Gal4 binding enhancer sequences. Renilla luciferase construct under the polIII promoter was obtained from Dr. Dasgupta's laboratory (NYU medical center). In order to generate stable cell lines, cells were co-transfected with pMT-G4 DBD-RORγt, pMT-G4 DBD-RORα, pMT-G4 DBD-DHR3, or pMT-G4 DBDVP16 and pHygro plasmids (Invitrogen) and screened for resistant colonies in the presence of hygromycin (0.3 mg/mL). […] Using similar methods, stable clones with genomic integration of the luciferase reporters and other reporters were generated such as pMT-RORα_luc, pMT-DHR3_Luc, or pMT-VP16_luc.
The following representative compounds are tested for their RORγt inhibitory activity and toxicity.
Promega Dual-Glo system is widely used for HTS as the luciferase substrates. Cell culture medium was reduced to the final volume of 10 μl or less and 10 μl of Dual-glo and 10 μl of Stop-glo luciferase substrates were added in a sequencial manner (Promega). Firefly and Renilla luciferase activity was determined by measuring luminescence signals using an automated 384-well plate reader equipped with multiple stack units (such as the Analyst GT or Envision plate readers).
10,000 Drosophila stable S2 cells with genomic integration of the Cu2+-inducible G4 DBD-mouse RORγ construct were transfected with 5 ng of pUASTfirefly luciferase and 7 ng of Pol III-Renilla luciferase and dispensed into white bottom-tissue culture 384-well plates (Corning). […] The following morning, Stop-glo luciferase substrates (Promega) were used to measure luciferase activity.
The Drosophila S2 cell line was originally purchased from Invitrogen and was maintained in Schneider's Drosophila medium supplemented with 10% heat-inactivated bovine fetal calf serum and 1× antibiotic-antimycotic solution (Invitrogen). […] The resulting chimeric gene was subcloned into the copper inducible pMT/V5-His A vector (Invitrogen) and into the constitutive pAc vector. […] Coding sequences for firefly luciferase (Promega) were PCR amplified and subcloned into the pUAST vector containing five Gal4 binding enhancer sequences. The Renilla luciferase construct under a pol III promoter and the pAc vector were obtained from R. Dasgupta (NYU School of Medicine). To generate cell lines stably expressing various chimeric proteins upon copper addition, S2 cells were co-transfected with pMT plasmids encoding individual G4 DBD chimeric constructs and the pCoHygro plasmid (Invitrogen), before screening for resistant colonies in the presence of hygromycin (0.3 mg/mL). […] The human androgen receptor (hAR) expression plasmid pMK33-hAR and its reporter TAT3-Luc were obtained from M. Garabedian (NYU School of Medicine). […] R1881 (10 nM) and Dafachronic acid (10 μM) were used as ligands for hAR and Daf12. Upon treatment of cells with copper, in 384 well plates, there was specific increase in firefly luciferase activity versus normalized Renilla luciferase activity for all cell lines described above, validating the method for high-throughput screen.
Transfections of firefly and Renilla reporter constructs were performed using the Effectene kit from Qiagen according to the manufacturer's protocol with some modifications.

[1] = system: RORγ LBD mutants (L290, C318, A494); assay: Random mutagenesis of RORγ LBD, digoxin resistance in S2 reporter; format: cell-based, mouse; conditions: mutations at L290, C318 and A494

| SMILES | IC50 (mouse RORγt) [µM] | effect on RORγ transcriptional activity (mouse RORγt) | sensitivity of mutant RORγ to inhibition [1] | IC50 (mouse RORγt; S2 cell RORγt reporter, read-out: IC50) [µM] | IC50 (mouse RORγt; read-out: IC50 (half-maximal inhibitory concentration), RORγ transcriptional activity) [µM] |
| --- | --- | --- | --- | --- | --- |
| CC1O[C@@H](OC2C(C)O[C@H](OC3C(C)O[C@@H](O[C@H]4CC[C@@]5(C)[C@H](CC[C@@H]6[C@@H]5C[C@@H](O)[C@]5(C)[C@@H](C(CO)CCO)CC[C@]65O)C4)C[C@H]3O)C[C@H]2O)C[C@@H](O)C1O (some centres unmarked) [Compound 13, 20,22-Dihydrodigoxin-21,23-diol] | 11 to 20 | still possessed RORγ inhibitory activity | – | – | – |
| C[C@H]1O[C@@H](O[C@H]2[C@@H](O)C[C@H](O[C@H]3[C@@H](O)C[C@H](O[C@H]4CC[C@@]5(C)[C@H](CC[C@@H]6[C@@H]5C[C@@H](O)[C@]5(C)[C@@H](C7=CC(=O)OC7)CC[C@]65O)C4)O[C@@H]3C)O[C@@H]2C)C[C@H](O)[C@@H]1O [Digoxin] | – | – | much less sensitivity | 1 to 10 | 1.98 |

Source: US9505798B2, “Steroid compounds as RORyt modulators and uses thereof” (New York University, priority 2010, dated 2016)
